Key:
Format in all cases: biochemical
SIK2 = SIK2 (Homo sapiens, UniProt Q9H0K1); assay: Enzymatic activity assay SIK2, RapidFire mass spectrometry (phosphorylation of CHK-peptide); conditions: RapidFire MS, inhibition of SIK2; read-out: SIK2 RF IC50
In short: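 Read-out is the summed phospho-species fraction of CHK-peptide by RapidFire mass spectrometry, normalized between DMSO and 1 μM YKL-05-099. The reaction used 0.5 nM SIK2, 100 μM ATP and 10 μM peptide solutions in HEPES pH 7.0/10 mM magnesium acetate for 45 min at ambient temperature.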

SIK3 = SIK3 (Homo sapiens, UniProt Q9Y2K2); assay: Enzymatic activity assay SIK3, RapidFire mass spectrometry (phosphorylation of CHK-peptide); conditions: RapidFire MS, inhibition of SIK3; read-out: SIK3 RF IC50
Sequence of SIK3 (Q9Y2K2 whole entry): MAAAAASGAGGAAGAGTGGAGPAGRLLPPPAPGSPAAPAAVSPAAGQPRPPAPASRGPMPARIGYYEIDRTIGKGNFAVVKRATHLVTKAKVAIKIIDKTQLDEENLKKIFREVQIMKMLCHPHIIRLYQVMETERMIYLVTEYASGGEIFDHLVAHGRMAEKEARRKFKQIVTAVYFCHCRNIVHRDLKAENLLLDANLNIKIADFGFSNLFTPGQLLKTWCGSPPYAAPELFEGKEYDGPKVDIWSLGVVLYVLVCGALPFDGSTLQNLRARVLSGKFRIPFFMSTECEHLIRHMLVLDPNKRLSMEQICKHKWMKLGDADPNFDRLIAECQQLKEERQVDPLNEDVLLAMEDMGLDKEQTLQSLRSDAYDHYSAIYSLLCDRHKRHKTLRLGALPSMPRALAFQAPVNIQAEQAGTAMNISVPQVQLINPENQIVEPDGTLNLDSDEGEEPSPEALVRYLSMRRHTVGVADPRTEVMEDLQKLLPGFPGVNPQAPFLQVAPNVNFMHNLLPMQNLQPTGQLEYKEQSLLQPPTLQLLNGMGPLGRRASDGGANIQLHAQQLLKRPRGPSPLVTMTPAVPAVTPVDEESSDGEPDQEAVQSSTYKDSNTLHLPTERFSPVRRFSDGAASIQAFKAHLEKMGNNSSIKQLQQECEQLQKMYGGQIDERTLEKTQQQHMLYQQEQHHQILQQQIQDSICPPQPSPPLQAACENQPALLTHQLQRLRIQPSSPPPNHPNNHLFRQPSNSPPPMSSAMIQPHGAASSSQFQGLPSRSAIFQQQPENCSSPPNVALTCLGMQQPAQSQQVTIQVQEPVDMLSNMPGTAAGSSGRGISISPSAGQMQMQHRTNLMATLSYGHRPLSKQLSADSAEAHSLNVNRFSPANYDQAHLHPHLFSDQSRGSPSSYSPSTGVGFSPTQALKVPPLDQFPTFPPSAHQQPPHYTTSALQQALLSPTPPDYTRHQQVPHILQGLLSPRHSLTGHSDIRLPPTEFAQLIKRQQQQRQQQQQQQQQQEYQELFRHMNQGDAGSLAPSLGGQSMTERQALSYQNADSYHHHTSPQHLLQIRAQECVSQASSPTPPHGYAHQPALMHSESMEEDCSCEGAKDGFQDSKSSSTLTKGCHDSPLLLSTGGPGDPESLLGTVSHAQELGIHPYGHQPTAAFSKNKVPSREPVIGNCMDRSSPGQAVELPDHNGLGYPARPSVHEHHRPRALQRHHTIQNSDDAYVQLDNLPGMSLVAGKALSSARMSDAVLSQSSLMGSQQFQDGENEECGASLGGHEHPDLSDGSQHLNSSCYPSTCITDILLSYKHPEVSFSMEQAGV
In short: (§1)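 Human SIK1/2/3, 5/0.5/1.5 nM; 12.5 mM HEPES pH 7.0, 10 mM Mg acetate, 0.005% BSA. 30 min cpd pre-inc, + CHK-peptide (10 μM soln) + ATP (100 μM soln), 45 min RT. Formic acid stop; RF-MS phospho ratio; IC50.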

SIK1 = SIK1 (Homo sapiens, UniProt P57059); assay: Enzymatic activity assay SIK1, RapidFire mass spectrometry (phosphorylation of CHK-peptide); conditions: RapidFire MS, inhibition of SIK1; read-out: SIK1 RF IC50
Sequence of SIK1 (P57059 whole entry): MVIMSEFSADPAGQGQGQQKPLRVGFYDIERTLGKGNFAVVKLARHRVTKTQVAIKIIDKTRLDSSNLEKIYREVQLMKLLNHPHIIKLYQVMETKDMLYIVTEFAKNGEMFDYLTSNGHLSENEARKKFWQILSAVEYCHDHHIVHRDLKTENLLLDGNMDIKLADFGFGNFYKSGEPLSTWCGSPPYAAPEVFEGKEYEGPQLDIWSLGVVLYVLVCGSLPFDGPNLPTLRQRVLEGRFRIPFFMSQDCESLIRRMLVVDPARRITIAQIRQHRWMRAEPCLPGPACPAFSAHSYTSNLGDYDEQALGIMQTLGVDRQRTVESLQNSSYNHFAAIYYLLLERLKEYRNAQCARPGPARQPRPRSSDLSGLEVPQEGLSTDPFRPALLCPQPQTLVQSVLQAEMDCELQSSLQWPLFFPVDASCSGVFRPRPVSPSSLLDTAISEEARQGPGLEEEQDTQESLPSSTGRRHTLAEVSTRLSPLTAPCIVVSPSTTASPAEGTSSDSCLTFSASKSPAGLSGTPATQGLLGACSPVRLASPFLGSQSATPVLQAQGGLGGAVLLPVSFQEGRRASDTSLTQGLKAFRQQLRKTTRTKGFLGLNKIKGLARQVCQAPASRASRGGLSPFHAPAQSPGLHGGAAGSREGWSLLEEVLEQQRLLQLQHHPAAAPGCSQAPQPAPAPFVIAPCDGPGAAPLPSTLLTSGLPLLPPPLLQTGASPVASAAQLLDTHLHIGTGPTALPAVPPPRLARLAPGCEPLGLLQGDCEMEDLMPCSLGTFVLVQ
In short: as §1

Sequence of SIK2 (Q9H0K1 whole entry): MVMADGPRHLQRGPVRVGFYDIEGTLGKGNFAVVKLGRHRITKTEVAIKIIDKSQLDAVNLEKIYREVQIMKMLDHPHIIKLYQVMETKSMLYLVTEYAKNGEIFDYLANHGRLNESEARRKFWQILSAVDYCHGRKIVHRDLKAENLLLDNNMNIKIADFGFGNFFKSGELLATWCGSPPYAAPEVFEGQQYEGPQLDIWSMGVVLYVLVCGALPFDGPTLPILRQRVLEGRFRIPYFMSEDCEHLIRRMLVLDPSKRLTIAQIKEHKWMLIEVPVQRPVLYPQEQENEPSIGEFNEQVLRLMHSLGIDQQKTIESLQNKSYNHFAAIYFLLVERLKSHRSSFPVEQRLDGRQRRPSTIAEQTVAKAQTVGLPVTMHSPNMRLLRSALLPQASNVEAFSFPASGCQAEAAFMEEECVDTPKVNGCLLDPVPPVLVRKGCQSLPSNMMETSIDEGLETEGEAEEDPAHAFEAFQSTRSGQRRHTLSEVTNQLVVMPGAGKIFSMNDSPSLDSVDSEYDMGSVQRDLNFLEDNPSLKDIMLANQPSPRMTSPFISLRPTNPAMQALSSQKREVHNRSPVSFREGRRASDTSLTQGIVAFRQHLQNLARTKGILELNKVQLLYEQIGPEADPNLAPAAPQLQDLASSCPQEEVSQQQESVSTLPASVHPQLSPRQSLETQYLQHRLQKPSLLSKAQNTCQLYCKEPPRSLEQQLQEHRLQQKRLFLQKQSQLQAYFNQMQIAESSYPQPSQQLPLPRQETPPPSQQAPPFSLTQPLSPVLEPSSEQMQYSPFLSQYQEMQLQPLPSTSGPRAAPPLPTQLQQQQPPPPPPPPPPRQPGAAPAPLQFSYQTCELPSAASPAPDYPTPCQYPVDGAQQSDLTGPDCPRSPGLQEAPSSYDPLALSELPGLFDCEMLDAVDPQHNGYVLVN

Compound | IC50 (SIK2) | IC50 (SIK3) | IC50 (SIK1)
Cc1ccc(Nc2cc3ncn(-c4ccc(C(C)O)c(-n5nc(OC(F)F)cc5C)n4)c3cc2OC2COC2)nn1 (stereo not drawn) [Example 357, 1-[2-[3-(difluoromethoxy)-5-methyl-pyrazol-1-yl]-6-[5-[(6-methylpyridazin-3-yl)amino]-6-(oxetan-3-yloxy)benzimidazol-1-yl]-3-pyridyl]ethanol] | 0.001 µM | 0.0017 µM | 0.019 µM
Cc1ccc(Nc2ccc3c(c2)ncn3-c2ccc(C(C)O)c(-n3nc(C(F)(F)F)c4c3CCNC4)n2)nn1 (stereo not drawn) [Example 97, 1-[6-[5-[(6-Methylpyridazin-3-yl)amino]benzimidazol-1-yl]-2-[3-(trifluoromethyl)-4,5,6,7-tetrahydropyrazolo[4,3-c]pyridin-1-yl]-3-pyridyl]ethanol] | 0.0002 µM | 0.0005 µM | 0.007 µM
Cc1cc(C#N)nn1-c1nc(-n2cnc3cc(NC(=O)C4(F)CC4)ccc32)ccc1C(C)O (stereo not drawn) [Example 380, N-[1-[6-(3-cyano-5-methyl-pyrazol-1-yl)-5-(1-hydroxyethyl)-2-pyridyl]benzimidazol-5-yl]-1-fluoro-cyclopropanecarboxamide] | 0.0166 µM | 0.0124 µM | 0.081 µM
Cc1ccc(Nc2ccc3ncn(-c4ccc(C(C)O)c(N5CC[C@@H](C#N)C5)n4)c3c2)nn1 (stereo partly drawn) [Example 106, (3R)-1-[3-(1-Hydroxyethyl)-6-[6-[(6-methylpyridazin-3-yl)amino]benzimidazol-1-yl]-2-pyridyl]pyrrolidine-3-carbonitrile] | 0.0211 µM | 0.0025 µM | 0.869 µM
Cc1cc(C#N)nn1-c1nc(-n2cnc3cc(CN4CCCS4(=O)=O)ccc32)ccc1C(C)O (stereo not drawn) [Example 201, 1-[6-[5-[(1,1-Dioxo-1,2-thiazolidin-2-yl)methyl]benzimidazol-1-yl]-3-(1-hydroxyethyl)-2-pyridyl]-5-methyl-pyrazole-3-carbonitrile] | 0.0621 µM | 0.321 µM | 0.111 µM
Cc1ccc(Nc2ccc3c(c2)ncn3-c2ccc(C(C)O)c(-n3nc(C(F)F)nc3C)n2)nn1 (stereo not drawn) [Example 344, 1-[2-[3-(difluoromethyl)-5-methyl-1,2,4-triazol-1-yl]-6-[5-[(6-methylpyridazin-3-yl)amino]benzimidazol-1-yl]-3-pyridyl]ethanol] | 0.0202 µM | 0.0032 µM | 1.57 µM
Cc1ccc(Oc2ccc3c(c2)ncn3-c2ccc(C(C)O)c(-n3nc(C#N)cc3C)n2)nn1 (stereo not drawn) [Example 75, 1-[3-(1-Hydroxyethyl)-6-[5-(6-methylpyridazin-3-yl)oxybenzimidazol-1-yl]-2-pyridyl]-5-methyl-pyrazole-3-carbonitrile] | 0.0384 µM | 0.0063 µM | 1.44 µM
Cc1cc(C#N)nn1-c1nc(-n2cnc3ccc(N4CCC[C@H]4C#N)cc32)ccc1C(C)O (stereo partly drawn) [Example 341, 1-[6-[6-[(2S)-2-cyanopyrrolidin-1-yl]benzimidazol-1-yl]-3-(1-hydroxyethyl)-2-pyridyl]-5-methyl-pyrazole-3-carbonitrile] | 0.0151 µM | 0.124 µM | 0.014 µM
Cc1ccc(Nc2ccc3c(c2)ncn3-c2ccc(C(C)O)c(-c3cn(CC(F)CF)nc3C)n2)nn1 (stereo not drawn) [Example 399, 1-[2-[1-(2,3-difluoropropyl)-3-methyl-pyrazol-4-yl]-6-[5-[(6-methylpyridazin-3-yl)amino]benzimidazol-1-yl]-3-pyridyl]ethanol] | 0.0006 µM | 0.001 µM | 0.039 µM
Cc1ccc(Nc2ccc3c(c2)ncn3-c2ccc(CO)c(-c3cnn(CC(F)(F)F)c3C)n2)nn1 [Example 316, [6-[5-[(6-methylpyridazin-3-yl)amino]benzimidazol-1-yl]-2-[5-methyl-1-(2,2,2-trifluoroethyl)pyrazol-4-yl]-3-pyridyl]methanol] | 0.0151 µM | 0.0046 µM | 0.975 µM
CCOc1cc(C)n(-c2nc(-n3cnc4cc(Nc5ccc(C)nn5)ccc43)ccc2C(C)O)n1 (stereo not drawn) [Example 133, 1-[2-(3-Ethoxy-5-methyl-pyrazol-1-yl)-6-[5-[(6-methylpyridazin-3-yl)amino]benzimidazol-1-yl]-3-pyridyl]ethanol; formic acid] | 0.0077 µM | 0.0022 µM | 0.447 µM
Cc1ccc(Nc2ccc3c(c2)ncn3-c2ccc(C(C)O)c(-c3cncc(C#N)c3)n2)nn1 (stereo not drawn) [Example 118, 5-[3-(1-Hydroxyethyl)-6-[5-[(6-methylpyridazin-3-yl)amino]benzimidazol-1-yl]-2-pyridyl]pyridine-3-carbonitrile; formic acid] | 0.0364 µM | 0.0071 µM | 2.77 µM
Cc1ccc(Nc2cc3c(cc2F)ncn3-c2ccc(CO)c(-n3nc(C#N)cc3C)n2)nn1 [Example 314, 1-[6-[5-fluoro-6-[(6-methylpyridazin-3-yl)amino]benzimidazol-1-yl]-3-(hydroxymethyl)-2-pyridyl]-5-methyl-pyrazole-3-carbonitrile] | 0.0524 µM | 0.0651 µM | 0.07 µM
Cc1cc(C#N)nn1-c1nc(-n2cnc3cc(Nc4ccc(C(F)F)nn4)ccc32)ccc1C(C)O (stereo not drawn) [Example 90, 1-[6-[5-[[6-(Difluoromethyl)pyridazin-3-yl]amino]benzimidazol-1-yl]-3-(1-hydroxyethyl)-2-pyridyl]-5-methyl-pyrazole-3-carbonitrile] | 0.0009 µM | 0.0005 µM | 0.053 µM
Cc1ccc(Nc2ccc3c(c2)ncn3-c2ccc(C(C)O)c(N3CCC(C(F)F)C3)n2)nn1 (stereo not drawn) [Example 298, 1-[2-[3-(difluoromethyl)pyrrolidin-1-yl]-6-[5-[(6-methylpyridazin-3-yl)amino]benzimidazol-1-yl]-3-pyridyl]ethanol] | 0.0274 µM | 0.003 µM | 1.51 µM
Cc1ccc(Nc2ccc3c(c2)ncn3-c2ccc(C(C)O)c(N3CCNC(C(F)(F)F)C3)n2)nn1 (stereo not drawn) [Example 331, 1-[6-[5-[(6-methylpyridazin-3-yl)amino]benzimidazol-1-yl]-2-[3-(trifluoromethyl)piperazin-1-yl]-3-pyridyl]ethanol] | 0.0715 µM | 0.0093 µM | 3.34 µM
Cc1ccc(Nc2cc3c(cc2OC2COC2)ncn3-c2ccc(C(C)O)c(-n3nc(OC(F)F)cc3C)n2)nn1 (stereo not drawn) [Example 353, 1-[2-[3-(difluoromethoxy)-5-methyl-pyrazol-1-yl]-6-[6-[(6-methylpyridazin-3-yl)amino]-5-(oxetan-3-yloxy)benzimidazol-1-yl]-3-pyridyl]ethanol] | 0.0606 µM | 0.218 µM | 0.23 µM
CNC(=O)c1cc(C)n(-c2nc(-n3cnc4cc(Nc5ccc(C)nn5)ccc43)ccc2C(C)O)n1 (stereo not drawn) [Example 152, 1-[3-(1-Hydroxyethyl)-6-[5-[(6-methylpyridazin-3-yl)amino]benzimidazol-1-yl]-2-pyridyl]-N,5-dimethyl-pyrazole-3-carboxamide] | 0.0821 µM | 0.0161 µM | 5.04 µM
Cc1ccc(Nc2ccc3c(c2)ncn3-c2ccc(C(C)O)c(N3CC4CC(F)(F)C4C3)n2)nn1 (stereo not drawn) [Example 326, 1-[2-(6,6-difluoro-3-azabicyclo[3.2.0]heptan-3-yl)-6-[5-[(6-methylpyridazin-3-yl)amino]benzimidazol-1-yl]-3-pyridyl]ethanol] | 0.0671 µM | 0.0078 µM | 1.67 µM
CCn1cc(-c2nc(-n3cnc4cc(Nc5ccc(C)nn5)ccc43)ccc2C(C)O)c(C)n1 (stereo not drawn) [Example 264, 1-[2-(1-Ethyl-3-methyl-pyrazol-4-yl)-6-[5-[(6-methylpyridazin-3-yl)amino]benzimidazol-1-yl]-3-pyridyl]ethanol; formic acid] | 0.0026 µM | 0.0015 µM | 0.851 µM
Cc1ccc(Nc2cc3ncn(-c4ccc([C@@H](C)O)c(-n5nc(C#N)cc5C)n4)c3cc2OC(F)F)nn1 [Example 403, 1-[6-[6-(difluoromethoxy)-5-[(6-methylpyridazin-3-yl)amino]benzimidazol-1-yl]-3-[(1R)-1-hydroxyethyl]-2-pyridyl]-5-methyl-pyrazole-3-carbonitrile] | 0.0247 µM | 0.0322 µM | 0.458 µM
Cc1ccc(Nc2ccc3c(c2)ncn3-c2ccc([C@H](C)O)c(-n3nc(C(F)F)cc3C(F)F)n2)nn1 [Example 287, (1S)-1-[2-[3,5-bis(difluoromethyl)pyrazol-1-yl]-6-[5-[(6-methylpyridazin-3-yl)amino]benzimidazol-1-yl]-3-pyridyl]ethanol] | 0.0008 µM | 0.0004 µM | 0.109 µM
Cc1ccc(Nc2ccc3ncn(-c4ccc(C(C)O)c(-n5nc(C(F)F)cc5C)n4)c3c2)nn1 (stereo not drawn) [Example 128, 1-[2-[3-(Difluoromethyl)-5-methyl-pyrazol-1-yl]-6-[6-[(6-methylpyridazin-3-yl)amino]benzimidazol-1-yl]-3-pyridyl]ethanol] | 0.0895 µM | 0.155 µM | 0.193 µM
COc1cc2ncn(-c3ccc(C(O)C4CC4)c(-c4ccc(F)cc4OC)n3)c2cc1OC (stereo not drawn) [Example 23, Cyclopropyl(6-(5,6-dimethoxy-1H-benzo[d]imidazol-1-yl)-2-(4-fluoro-2-methoxyphenyl)pyridin-3-yl)methanol] | 3.88 µM | 9.01 µM | 3.64 µM
Cc1ccc(Nc2ccc3ncn(-c4ccc(C(C)O)c(-n5cc(C#N)c(C)n5)n4)c3c2)nn1 (stereo not drawn) [Example 178, 1-[3-(1-Hydroxyethyl)-6-[6-[(6-methylpyridazin-3-yl)amino]benzimidazol-1-yl]-2-pyridyl]-3-methyl-pyrazole-4-carbonitrile] | 6.34 µM | 10 µM | 27 µM
